In the test the test system is form deprivation myopia. Conditions: for difference of binocular refractions / difference of binocular axial lengths: 2 weeks after form deprivation, p<0.01; for difference of binocular axial lengths: vehicle 0.17±0.05.

Like-named read-outs stand apart in the source and are kept apart here.

For the compound `O=C(O)c1cccnc1` [nicotinic acid], the “difference of binocular refractions” value (FDM+NA (0.1 mg), FDM+Vehicle −5.43±1.69, FIG. 5A) is −3.43±1.80 D. Further, the “difference of binocular axial lengths” value (FDM+NA (0.1 mg), FIG. 5B) worked out at 0.10±0.06 mm. Besides, the “choroidal blood flow, fellow eye vs. test eye” value (after periocular injection of 0.1 mg nicotinic acid, 2 weeks form deprivation, FIG. 5C) is given as “no statistical difference between two eyes”.
On to `COc1cc2nc(N3CCN(C(=O)c4ccco4)CC3)nc(N)c2cc1OC` [prazosin], for which, for the setting “FDM+Pr (10 μM), FDM+Vehicle −5.98±2.22, FIG. 6A”, the “difference of binocular refractions” value is given as −3.26±2.22 D. Further, the “difference of binocular axial lengths” value (FDM+Pr (10 μM), FIG. 6B) turned out to be 0.10±0.06 mm.

These data come from patent US20220016023A1, “METHOD FOR TREATING MYOPIA AND APPLICATION IN PREPARATION OF MEDICAMENT” (WENZHOU MEDICAL UNIVERSITY, priority 2018, published 2022).
